Source: patent US11168073B2, “3,3-difluoroallylamines or salts thereof and pharmaceutical compositions comprising the same” (YUHAN CORPORATION, priority 2018, dated 2021)
Counter-ions that a name gives are not always drawn. Like-named read-outs stand apart in the source and are kept apart here.

How the values were obtained:
Assay type in all cases: biochemical
recombinant human VAP-1 = biological target: T1, recombinant human VAP-1 (Homo sapiens, UniProt Q16853); experiment: Activity evaluation on recombinant human VAP-1 (Amplex Red/HRP-coupled hydrogen peroxide assay, benzylamine substrate); conditions: read-out: Inhibitory Activity (IC50, nM) human VAP-1
T1 construct: purchased R&D systems
T1 sequence (Q16853 1-763): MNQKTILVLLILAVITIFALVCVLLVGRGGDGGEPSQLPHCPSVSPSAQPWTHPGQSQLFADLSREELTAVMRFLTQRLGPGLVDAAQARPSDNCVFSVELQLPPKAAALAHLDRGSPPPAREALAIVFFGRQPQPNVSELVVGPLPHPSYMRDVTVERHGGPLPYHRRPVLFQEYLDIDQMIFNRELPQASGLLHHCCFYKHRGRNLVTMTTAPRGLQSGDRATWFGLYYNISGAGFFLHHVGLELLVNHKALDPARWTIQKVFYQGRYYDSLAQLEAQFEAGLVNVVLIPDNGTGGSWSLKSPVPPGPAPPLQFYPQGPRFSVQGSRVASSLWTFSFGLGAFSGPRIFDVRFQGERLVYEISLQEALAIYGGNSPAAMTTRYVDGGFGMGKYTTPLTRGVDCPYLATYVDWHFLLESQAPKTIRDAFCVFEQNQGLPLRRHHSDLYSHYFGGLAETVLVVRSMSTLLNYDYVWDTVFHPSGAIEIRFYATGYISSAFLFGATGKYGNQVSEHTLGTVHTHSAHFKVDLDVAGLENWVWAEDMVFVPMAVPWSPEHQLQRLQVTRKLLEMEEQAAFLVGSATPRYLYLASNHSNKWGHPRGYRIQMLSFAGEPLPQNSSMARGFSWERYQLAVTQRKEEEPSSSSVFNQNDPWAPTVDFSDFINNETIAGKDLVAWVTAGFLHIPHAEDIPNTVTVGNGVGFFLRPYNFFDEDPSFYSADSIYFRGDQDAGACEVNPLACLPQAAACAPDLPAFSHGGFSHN
Method in brief: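 Recombinant human VAP-1 in 50 mM sodium phosphate pH 7.4 preincubated 30 min at 37 °C with compound (8-point 1:3 series, <1% DMSO), then 1 mM benzylamine, 200 uM Amplex Red, 1 U/mL HRP added. H2O2-derived resorufin fluorescence (ex 544/em 590) followed 1–2 h; IC50 from four-parameter fit of rate inhibition.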

[1] = biological target: T2, recombinant human MAO-A (monoamine oxidase-A) (Homo sapiens, UniProt P21397); experiment: Activity evaluation on recombinant human MAO-A (Amplex Red/HRP-coupled assay, 0.5 mM tyramine substrate); conditions: read-out: Inhibitory Activity (IC50, nM) MAO-A
T2 construct: purchased Sigma-Aldrich
T2 sequence (P21397 1-527): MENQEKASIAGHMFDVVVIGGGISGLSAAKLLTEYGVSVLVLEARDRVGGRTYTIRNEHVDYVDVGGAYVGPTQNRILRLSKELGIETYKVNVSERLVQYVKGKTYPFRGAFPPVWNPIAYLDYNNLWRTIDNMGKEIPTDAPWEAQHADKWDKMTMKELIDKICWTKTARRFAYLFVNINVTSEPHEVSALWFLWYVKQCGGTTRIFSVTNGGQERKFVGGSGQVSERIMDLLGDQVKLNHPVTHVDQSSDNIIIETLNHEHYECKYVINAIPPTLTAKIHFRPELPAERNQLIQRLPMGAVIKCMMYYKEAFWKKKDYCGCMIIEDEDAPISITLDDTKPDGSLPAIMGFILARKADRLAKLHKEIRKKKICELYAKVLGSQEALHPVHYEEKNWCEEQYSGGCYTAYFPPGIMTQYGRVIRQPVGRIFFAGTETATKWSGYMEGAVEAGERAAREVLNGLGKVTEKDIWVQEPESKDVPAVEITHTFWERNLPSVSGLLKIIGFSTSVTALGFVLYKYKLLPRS
Method in brief: (§1)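 Enzyme activity was measured as fluorescence rate (ex 544, em 590 nm) from resorufin formed by HRP-coupled H2O2 oxidation of 200 uM Amplex Red. Compounds were first incubated 30 min at 37 °C with enzyme at pH 7.4; substrates were 0.5 mM tyramine (MAO-A), 1 mM benzylamine (MAO-B) and 1 mM putrescine (DAO).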

[2] = biological target: T3, recombinant human MAO-B (monoamine oxidase-B) (Homo sapiens, UniProt P27338); experiment: Activity evaluation on recombinant human MAO-B (Amplex Red/HRP-coupled assay, 1 mM benzylamine substrate); conditions: read-out: Inhibitory Activity (IC50, nM) MAO-B
T3 construct: purchased Sigma-Aldrich
T3 sequence (P27338 1-520): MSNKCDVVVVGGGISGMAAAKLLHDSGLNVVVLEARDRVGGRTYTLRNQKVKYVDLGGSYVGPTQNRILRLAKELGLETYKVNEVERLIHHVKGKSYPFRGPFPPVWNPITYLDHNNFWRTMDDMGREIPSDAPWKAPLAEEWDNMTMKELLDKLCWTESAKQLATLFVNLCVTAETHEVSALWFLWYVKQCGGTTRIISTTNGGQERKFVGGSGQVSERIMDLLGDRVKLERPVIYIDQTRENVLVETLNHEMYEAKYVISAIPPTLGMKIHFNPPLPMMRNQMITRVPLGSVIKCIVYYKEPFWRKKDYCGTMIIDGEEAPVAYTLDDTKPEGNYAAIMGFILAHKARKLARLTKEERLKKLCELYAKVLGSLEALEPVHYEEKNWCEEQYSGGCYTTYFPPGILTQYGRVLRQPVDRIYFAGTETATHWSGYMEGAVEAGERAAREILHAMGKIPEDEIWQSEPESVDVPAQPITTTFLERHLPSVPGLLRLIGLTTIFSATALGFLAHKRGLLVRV
Method in brief: as §1

[3] = biological target: T4, recombinant human DAO (diamine oxidase) (Homo sapiens, UniProt P19801); experiment: Activity evaluation on recombinant human DAO (Amplex Red/HRP-coupled assay, 1 mM putrescine substrate); conditions: read-out: Inhibitory Activity (IC50, nM) DAO
T4 construct: purchased R&D systems
T4 sequence (P19801 20-751): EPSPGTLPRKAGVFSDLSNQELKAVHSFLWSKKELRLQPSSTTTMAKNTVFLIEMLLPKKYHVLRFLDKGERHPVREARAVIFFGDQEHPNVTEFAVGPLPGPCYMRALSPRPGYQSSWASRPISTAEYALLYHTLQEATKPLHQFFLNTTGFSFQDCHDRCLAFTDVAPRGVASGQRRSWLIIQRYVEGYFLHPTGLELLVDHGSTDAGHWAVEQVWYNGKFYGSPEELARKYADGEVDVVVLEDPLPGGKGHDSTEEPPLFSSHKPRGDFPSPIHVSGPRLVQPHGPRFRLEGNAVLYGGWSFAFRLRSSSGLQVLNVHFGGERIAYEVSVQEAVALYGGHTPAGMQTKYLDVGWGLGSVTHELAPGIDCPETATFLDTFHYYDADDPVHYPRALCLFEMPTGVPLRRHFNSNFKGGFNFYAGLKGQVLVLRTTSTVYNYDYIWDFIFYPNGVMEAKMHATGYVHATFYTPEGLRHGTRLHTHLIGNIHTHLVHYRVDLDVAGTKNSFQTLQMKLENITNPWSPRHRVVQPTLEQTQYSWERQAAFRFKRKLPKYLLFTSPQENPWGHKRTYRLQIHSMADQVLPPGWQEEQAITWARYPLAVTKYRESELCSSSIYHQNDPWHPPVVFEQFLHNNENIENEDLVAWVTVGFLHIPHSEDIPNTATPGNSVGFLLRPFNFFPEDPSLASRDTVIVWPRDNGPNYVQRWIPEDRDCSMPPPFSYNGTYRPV
Method in brief: as §1

[4] = recombinant human VAP-1, 30 min preincubation at 37° C., 1 mM benzylamine
[5] = recombinant human VAP-1, benzylamine substrate

Row | Compound | IC50 (recombinant human VAP-1; [4]) | IC50 ([1]; 0.5 mM tyramine) | IC50 ([2]; 1 mM benzylamine) | IC50 ([3]; 1 mM putrescine) | IC50 (recombinant human VAP-1; [5]) | IC50 ([1]; 0.5 mM tyramine substrate) | IC50 ([2]; 1 mM benzylamine substrate) | IC50 ([3]; 1 mM putrescine substrate)
1 | NCC(Cn1ncn(-c2cc(Br)ccn2)c1=O)=C(F)F [Example 9, 2-[2-(aminomethyl)-3,3-difluoro-allyl]-4-(4-bromo-2-pyridyl)-1,2,4-triazol-3-one Trifluoroacetate] | 3.5 nM | > 100000 nM | > 100000 nM | 7100 nM | – | – | – | –
2 | NCC(Cn1ncn(-c2cnc(-c3ccc4c(c3)OCO4)cn2)c1=O)=C(F)F [Example 93, 2-[2-(aminomethyl)-3,3-difluoro-allyl]-4-[5-(1,3-benzodioxol-5-yl)pyrazin-2-yl]-1,2,4-triazol-3-one Trifluoroacetate] | 0.3 nM | > 100000 nM | 50 nM | 21 nM | – | – | – | –
3 | CCn1cc(-c2cccc(Cn3cnn(CC(CN)=C(F)F)c3=O)c2)cn1 [Example 271, 2-[2-(aminomethyl)-3,3-difluoro-allyl]-4-[[3-(1-ethylpyrazol-4-yl)phenyl]methyl]-1,2,4-triazol-3-one Trifluoroacetate] | – | – | – | – | 2.2 nM | > 100000 nM | 1590 nM | > 100000 nM
4 | CCn1cc(-c2cccc(-c3csc(Cn4cnn(CC(CN)=C(F)F)c4=O)c3)c2)cn1 [Example 289, 2-[2-(aminomethyl)-3,3-difluoro-allyl]-4-[[4-[3-(1-ethylpyrazol-4-yl)phenyl]-2-thienyl]methyl]-1,2,4-triazol-3-one Trifluoroacetate] | – | – | – | – | 0.6 nM | > 100000 nM | 12000 nM | 14500 nM
5 | NCC(Cn1ncn(Cc2ccc(Br)s2)c1=O)=C(F)F [Example 97, 2-[2-(aminomethyl)-3,3-difluoro-allyl]-4-[(5-bromo-2-thienyl)methyl]-1,2,4-triazol-3-one Trifluoroacetate] | 1.3 nM | > 100000 nM | 20000 nM | > 10000 nM | – | – | – | –
6 | NCC(Cn1ncn(-c2cccc(-c3ccc(N4CCNCC4)cc3)n2)c1=O)=C(F)F [Example 47, 2-[2-(aminomethyl)-3,3-difluoro-allyl]-4-[6-(4-piperazin-1-ylphenyl)-2-pyridyl]-1,2,4-triazol-3-one Ditrifluoroacetate] | 3.5 nM | > 100000 nM | > 100000 nM | 1900 nM | – | – | – | –
7 | CCn1cc(-c2ccc(Cn3cnn(CC(CN)=C(F)F)c3=O)s2)cn1 [Example 119, 2-[2-(aminomethyl)-3,3-difluoro-allyl]-4-[[5-(1-ethylpyrazol-4-yl)-2-thienyl]methyl]-1,2,4-triazol-3-one Trifluoroacetate] | 0.5 nM | > 100000 nM | 30000 nM | > 10000 nM | – | – | – | –
8 | CCn1cc(-c2cccc(-n3cnn(CC(CN)=C(F)F)c3=O)c2C)cn1 [Example 260, 2-[2-(aminomethyl)-3,3-difluoro-allyl]-4-[3-(1-ethylpyrazol-4-yl)-2-methyl-phenyl]-1,2,4-triazol-3-one Trifluoroacetate] | – | – | – | – | 3.7 nM | > 100000 nM | > 100000 nM | > 100000 nM
9 | Cc1cc(-c2csc(Cn3cnn(CC(CN)=C(F)F)c3=O)c2)cc2c1NC(=O)CC2 [Example 151, 6-[5-[[1-[2-(aminomethyl)-3,3-difluoro-allyl]-5-oxo-1,2,4-triazol-4-yl]methyl]-3-thienyl]-8-methyl-3,4-dihydro-1H-quinolin-2-one Trifluoroacetate] | 0.3 nM | > 100000 nM | 26100 nM | 6600 nM | – | – | – | –
10 | CN1C(=O)CCc2cc(-c3cnc(-n4cnn(CC(CN)=C(F)F)c4=O)c(F)c3)ccc21 [Example 87, 6-[6-[1-[2-(aminomethyl)-3,3-difluoro-allyl]-5-oxo-1,2,4-triazol-4-yl]-5-fluoro-3-pyridyl]-1-methyl-3,4-dihydroquinolin-2-one Trifluoroacetate] | 0.1 nM | > 100000 nM | 1100 nM | 22 nM | – | – | – | –
11 | CCn1cc(-c2cc(C)c(Cn3cnn(CC(CN)=C(F)F)c3=O)s2)cn1 [Example 159, 2-[2-(aminomethyl)-3,3-difluoro-allyl]-4-[[5-(1-ethylpyrazol-4-yl)-3-methyl-2-thienyl]methyl]-1,2,4-triazol-3-one Trifluoroacetate] | 5.2 nM | > 100000 nM | > 100000 nM | 52000 nM | – | – | – | –
12 | Cc1cc(-c2ccc3c(c2)NC(=O)CO3)cnc1-n1cnn(CC(CN)=C(F)F)c1=O [Example 221, 6-[6-[1-[2-(aminomethyl)-3,3-difluoro-allyl]-5-oxo-1,2,4-triazol-4-yl]-5-methyl-3-pyridyl]-4H-1,4-benzoxazin-3-one Trifluoroacetate] | – | – | – | – | 0.3 nM | 20000 nM | 9000 nM | 2700 nM
13 | Cc1cc(-c2cc(-n3cnn(CC(CN)=C(F)F)c3=O)ccn2)cc2c1NC(=O)CC2 [Example 65, 6-[4-[1-[2-(aminomethyl)-3,3-difluoro-allyl]-5-oxo-1,2,4-triazol-4-yl]-2-pyridyl]-8-methyl-3,4-dihydro-1H-quinolin-2-one Trifluoroacetate] | 0.3 nM | > 100000 nM | 12000 nM | 290 nM | – | – | – | –
